Test results reported in US20130079228A1, “Agricultural spray solution compositions and methods” (priority 2011, published 2013).

Test system: velvetleaf
Assay: efficacy of glyphosate spray on velvetleaf
Assay type: in vivo
Conditions: in presence of drift reducing adjuvants, especially DR
Source text: Applicant's invention further contemplates the use of drift management adjuvants on the atomization, drift, patternation, retention, deposit formation, and efficacy of an herbicide spray. The drift of the spray particles decreases by suppressing the formation of fine droplets, i.e., <150 microns in diameter. The impact of drift reducing additives on pesticide efficacy in terms of the effect on the major phases, i.e., the larger droplets, on the dose transfer process is also considered. Two representative drift reducing adjuvants, i.e., (1) polyacrylamide polymers represented by Nalcotrol or Nalcotrol II (N or N2), and (2) biodegradable polymers represented by AgRHO DR-2000 (DR) of Rhone-Poulenc Inc. were considered in mixtures containing glyphosate.
Pattern distributions undergo significant deviations from even distributions using herbicide alone when polymers are added. […] 30% less spray is reflected from the cabbage leaves from mixtures containing DR compared to either water alone or water containing polyacrylamide polymers. Spray retention is reduced by the addition of drift reducing adjuvants. DR is better at wetting the cabbage leaves. […] The efficacy of glyphosate on velvetleaf is enhanced by the presence of drift reducing adjuvants, especially DR. […]

SMILES: O=C(O)CNCP(=O)(O)O [glyphosate]
- efficacy of glyphosate on velvetleaf: enhanced
